Assay results reported in publication PMC5049494, “Nitrotriazole-based acetamides and propanamides with broad spectrum antitrypanosomal activity” (European Journal of Medicinal Chemistry, 2016).
Where two headings read alike, the source gives them in different places.

Tests used:
[1] = test system: bloodstream form T.b. brucei recombinant parasites expressing wild type (-tet) or elevated (+tet) levels of TbNTR; assay: microbe, parasite or virus in culture; type: cell-based; conditions: for IC50: Trypanosoma brucei; for Ratio –tet/+tet: ratio of IC50 values -tet/+tet
Procedure: The BSF of T. brucei parasites were seeded at 1 × 10^3 mL^−1 in 200 μL of growth medium containing different concentrations of nitroheterocycle. Where appropriate, induction of the TbNTR was carried out by adding tetracycline (1 μg/mL). After incubation for 3 days at 37 °C, 20 μL of Alamar blue was added to each well and the plates incubated for a further 16 h. The cell density of each culture was determined as described before [20] and the IC50 established.

[2] = test system: bloodstream form T.b. brucei wild type; assay: T. brucei antiproliferating assay, wild type; type: cell-based; conditions: means from 4 experiments ± SD
Procedure: The BSF of T. brucei parasites were seeded at 1 × 10^3 mL^−1 in 200 μL of growth medium containing different concentrations of nitroheterocycle. Where appropriate, induction of the TbNTR was carried out by adding tetracycline (1 μg/mL). After incubation for 3 days at 37 °C, 20 μL of Alamar blue was added to each well and the plates incubated for a further 16 h. The cell density of each culture was determined as described before and the IC50 established.

[3] = test system: L. donovani axenic, strain MHOM-ET-67/L82 amastigotes; set-up: method as in PMID 26344593, PMID 25580906; conditions: cited from earlier work; for SI (L.d.): IC50 L6/IC50 parasite, previously evaluated compounds; for IC50: previously evaluated compounds (orange, designated a), read-out: L.d. IC50
[4] = test system: T.b. rhodesiense, strain STIB 900 trypomastigotes; set-up: method as in PMID 26344593, PMID 25580906; conditions: cited from earlier work; for IC50: previously evaluated compounds (orange, designated a), read-out: T.b.r. IC50
[5] = test system: L6 cells (rat skeletal myoblasts); set-up: method as in PMID 26344593, PMID 25580906; conditions: previously evaluated compounds (orange, designated a); read-out: Cyt. L6 IC50; cited from earlier work
[6] = test system: T. cruzi, strain Tulahuen C4 amastigotes; conditions: cited from earlier work; for SI (T. c.): IC50 L6/IC50 parasite; for SI (T. c.) / Bnz/comp: previously evaluated compounds; for Bnz/comp: fold potency relative to Bnz; for IC50: previously evaluated compounds (orange, designated a), read-out: T. c. IC50
[7] = Cytotoxicity in the host L6 cells; type: cell-based, rat; conditions: rat, L6 cells (rat skeletal myoblasts); cytotoxicity in host L6 cells; read-out: Cyt. L6 IC50
Procedure: (§1) Compounds in Table 1 were screened for anti-parasitic activity against three trypanosomatids: T. cruzi, T. b. rhodesiense and Leishmania donovani and compared with previously made analogs shown in orange and designated with a. […] In addition, compounds were tested for toxicity in L6 rat skeletal myoblasts, the host cells for T. cruzi amastigotes, in order to calculate a selectivity index for each parasite [SI = IC50L6/IC50parasite] (Table 1). The TDR (Special Programme for Research and Training in Tropical Diseases, World Health Organization) criteria were adopted to interpret antiparasitic activity and selectivity.
(§2) In vitro activity against T. cruzi, T. b. rhodesiense, L. donovani and cytotoxicity assessment using L6 cells (rat skeletal myoblasts) was determined using a 96-well plate format as previously described. Data were analyzed with the graphic program Softmax Pro (Molecular Devices, Sunnyvale, CA, USA), which calculated IC50 values by linear regression from the sigmoidal dose inhibition curves.

[8] = test system: transgenic T. cruzi parasites expressing firefly luciferase; type: in vivo, Balb/c mice; conditions: for parasite load after 10 days of treatment: acute murine model, p < 0.0001; for parasitic level after 5-day treatment: compared to untreated control
Procedure: A fast luminescence assay was used in an acute infected murine model, in which transgenic T. cruzi parasites expressing firefly luciferase were injected in 5 week-old Balb/c mice. Mice were injected with D-luciferin before imaging. Groups of 5 mice/group were treated i.p. for 10 consecutive days with each compound, at 13 or 15 mg/kg/day. […] The mean ratio of parasite levels was calculated after 5 and 10 days of treatment.
For in vivo studies, a Brazilian strain trypomastigotes from transgenic T. cruzi parasites expressing firefly luciferase were used as described before. Briefly, parasites (10^5 trypomastigotes) were injected in 5 week-old Balb/c mice (Taconic) and three days later mice were anesthesized by inhalation of isofluorane, followed by an injection with 150 mg/kg of D-luciferin potassium-salt in PBS. Mice were imaged 5–10 min after injection of luciferin with an IVIS 100 (Xenogen, Alameda, CA) and the data acquisition and analysis were performed with the software LivingImage (Xenogen) as described before. Treatment with test compounds started 4 days post infection at 13 or 15 mg/kg/day × 10 days, given i.p. The vehicle control was 2% methylcellulose +0.5% Tween 80 and groups of 5 mice/group were used. Mice were imaged after 5 and 10 days of treatment. The ratio of parasite levels was calculated for each animal dividing the luciferase signal after treatment by the luciferase signal on the first imaging (before treatment). Mean values of all animals in each group ± SD were used for plotting.

[9] = test system: T. cruzi, strain Tulahuen C4 amastigotes; assay: In vitro activity against T. cruzi; type: cell-based; conditions: for IC50: Trypanosoma cruzi, T. cruzi Tulahuen C4 amastigotes, means of 2 to 3 measurements, SD < 5%, read-out: T. c. IC50; for Bnz/comp: fold antichagasic potency relative to Bnz (T. cruzi IC50 ratio); for SI (T. c.): IC50 in L6 cells/IC50 in T. cruzi
Procedure: (§3) The concentration of compound that inhibits parasite growth by 50% (IC50) was calculated from dose response curves for each parasite (Table 1). In addition, compounds were tested for toxicity in L6 rat skeletal myoblasts, the host cells for T. cruzi amastigotes, in order to calculate a selectivity index for each parasite [SI = IC50L6/IC50parasite]
(§4) In vitro activity against T. cruzi, T. b. rhodesiense, L. donovani and cytotoxicity assessment using L6 cells (rat skeletal myoblasts) was determined using a 96-well plate format as previously described [37]. Data were analyzed with the graphic program Softmax Pro (Molecular Devices, Sunnyvale, CA, USA), which calculated IC50 values by linear regression from the sigmoidal dose inhibition curves.

[10] = test system: L. donovani axenic, strain MHOM-ET-67/L82 amastigotes; assay: In vitro activity against L. donovani; type: cell-based; conditions: for IC50: Leishmania donovani, L. donovani axenic amastigotes MHOM-ET-67/L82, means of 2 to 3 measurements, SD < 5%, read-out: L.d. IC50; for SI (L.d.): IC50 in L6 cells/IC50 in L. donovani
Procedure: as §3, §4

[11] = test system: T.b. rhodesiense, strain STIB 900 trypomastigotes; assay: In vitro activity against T. b. rhodesiense; type: cell-based; conditions: for IC50: Trypanosoma brucei, read-out: T.b.r. IC50; for SI (T.b.r.): IC50 in L6 cells/IC50 in T.b. rhodesiense; for anti-HAT activity class (TDR criteria): T. b. rhodesiense; for fold more potent against T. b. rhodesiense than the corresponding acetamide: propanamide vs acetamide analog
Procedure: as §1, §2

[12] = read-out: IC50 value T.b. brucei TbNTR (+tet)
[13] = read-out: IC50 value T.b. brucei TbNTR (-tet)
[14] = Trypanosoma brucei, read-out: IC50 value T.b. brucei Wild type, bloodstream form
[15] = T.b. rhodesiense STIB 900 trypomastigotes, means of 2 to 3 measurements, SD < 5%

Row | SMILES | IC50 [1, 12] | IC50 [1, 13] | IC50 [7] | IC50 [2, 14] | IC50 [9] | Bnz/comp [9] | IC50 [10] | IC50 [11, 15] | melting point | SI (T.b.r.) [11] | also measured
1 | CC1CS(=O)(=O)CCN1/N=C/c1ccc([N+](=O)[O-])o1 (centres unmarked) [nfx, Nifurtimox, reference compound] | 869 ± 46 nM | 6360 ± 119 nM |  |  |  |  |  |  |  |  | Ratio –tet/+tet [1]: 7.3; IC50 ([2]; Trypanosoma brucei, bloodstream form, read-out: IC50 value T.b. brucei Wild type): 3980 ± 150 nM
2 | O=C(Cn1cnc([N+](=O)[O-])n1)Nc1ccc(Oc2ccc(Cl)cc2)cc1 [Compound 6a] |  |  |  |  |  |  |  |  |  |  | SI (L.d.) [3]: 853; IC50 [3]: 34 nM; IC50 [4]: 1330 nM; IC50 [5]: 28900 nM; SI (T. c.) [6]: 3615; Bnz/comp [6]: 254
3 | O=C(Cn1cnc([N+](=O)[O-])n1)Nc1ccc(Oc2ccc(F)cc2)cc1 [Compound 7a] |  |  |  |  |  |  |  |  |  |  | SI (L.d.) [3]: 384; IC50 [3]: 183 nM; IC50 [4]: 2000 nM; IC50 [5]: 70400 nM; SI (T. c.) [6]: 1954; Bnz/comp [6]: 56; IC50 [6]: 36 nM
4 | O=C(CCn1cnc([N+](=O)[O-])n1)Nc1ccc(Oc2ccc(F)cc2)cc1 [Compound 7, N-(4-(4-fluorophenoxy)phenyl)-3-(3-nitro-1H-1,2,4-triazol-1-yl)propanamide] | 330 ± 30 nM | 680 ± 70 nM | 23400 nM | ~650 nM | 40 nM | 55 | 1180 nM | 167 nM |  |  | toxicity symptoms in treated mice ([8]; 13 mg/kg/day i.p. x 10 days): No toxicity symptoms were observed; parasite load after 10 days of treatment ([8]; 13 mg/kg/day i.p. x 10 days): undetectable levels; parasitic level after 5-day treatment ([8]; 13 mg/kg/day i.p.): Statistically significant reduction in parasitic level; IC50 ([2]; read-out: IC50 value T.b. brucei Wild type, bloodstream form): 570 ± 50 nM
5 | CN(C(=O)Cn1ccnc1[N+](=O)[O-])c1ccc(C(F)(F)F)cc1 [Compound 3, N-methyl-2-(2-nitro-1H-imidazol-1-yl)-N-(4-(trifluoromethyl)phenyl)acetamide] |  |  | 189000 nM |  | 49400 nM |  | 47700 nM | 97700 nM | 45 to 47 °C | 1.9 | antichagasic activity class (TDR criteria) ([9]; T. cruzi): moderately active (IC50 between 4.0 and 60 μM); SI (L.d.) [10]: 3.96; anti-HAT activity class (TDR criteria) [11]: inactive
6 | O=C(Cn1cnc([N+](=O)[O-])n1)NCc1ccc(C(F)(F)F)cc1 [Compound 2a] |  |  |  |  |  |  |  |  |  |  | IC50 [3]: 10400 nM; anti-HAT activity class (TDR criteria) ([4]; T. b. rhodesiense, previously evaluated acetamides): inactive; IC50 [4]: 6470 nM; fold more potent against T. b. rhodesiense than 2 ([11]; compared with N-methyl acetamide 2): 5.8 fold; IC50 [6]: 970 nM
7 | O=C(Cn1ccnc1[N+](=O)[O-])NCc1ccccc1 [Bnz, Benznidazole, reference compound] |  |  |  |  |  |  |  |  |  |  | parasite load after 10 days of treatment ([8]; 15 mg/kg/day i.p. x 10 days): undetectable levels; parasitic level after 5-day treatment ([8]; 15 mg/kg/day i.p.): Statistically significant reduction in parasitic level
8 | O=C(CCn1cnc([N+](=O)[O-])n1)Nc1ccc(Oc2ccccc2)cc1 [Compound 8, 3-(3-Nitro-1H-1,2,4-triazol-1-yl)-N-(4-phenoxyphenyl)propanamide] | 410 ± 10 nM | 1470 ± 30 nM | 31600 nM | 140 ± 10 nM | 79 nM | 28 | 2330 nM | 156 nM | 108 to 110 °C | 203 | SI (T. c.) [9]: 398; fold more potent against T. b. rhodesiense than the corresponding acetamide [11]: 17.4 fold
9 | O=C(Cn1cnc([N+](=O)[O-])n1)Nc1cccc(-c2ccccc2)c1 [Compound 10a] |  |  |  |  |  |  |  |  |  |  | IC50 [5]: 45300 nM
10 | O=C(CCn1cnc([N+](=O)[O-])n1)Nc1cccc(-c2ccccc2)c1 [Compound 10, N-([1,1′-biphenyl]-3-yl)-3-(3-nitro-1H-1,2,4-triazol-1-yl)propanamide] | 230 ± 20 nM | 5580 ± 620 nM | 36200 nM | 6660 ± 920 nM | 80 nM | 28 | 3550 nM | 270 nM | 174 to 176 °C | 134 | SI (T. c.) [9]: 452; fold more potent against T. cruzi than the acetamide analog ([9]; propanamide vs acetamide analog): 2.2 fold; SI (L.d.) [10]: 10.2; fold more potent against T. b. rhodesiense than the corresponding acetamide [11]: 214 fold
11 | Nc1nc(N)nc(Nc2ccc([As]3SCC(CO)S3)cc2)n1 (centres unmarked) [Melars., Melarsoprol, reference compound] |  |  |  |  |  |  |  |  |  |  | IC50 [11]: 9 ± 1 nM
12 | O=C(CCn1cnc([N+](=O)[O-])n1)Nc1cc(-c2ccc(F)cc2)on1 [Compound 12, N-(5-(4-fluorophenyl)isoxazol-3-yl)-3-(3-nitro-1H-1,2,4-triazol-1-yl)propanamide] | 400 nM | 1610 ± 100 nM | > 289000 nM | 760 ± 100 nM | 364 nM | 6 | 7790 nM | 1440 nM | 215 °C (dec.) | >201 | Ratio –tet/+tet [1]: 4.1; SI (T. c.) [9]: >794; SI (L.d.) [10]: >37; antileishmanial activity class (TDR criteria) ([10]; L. donovani): inactive; anti-HAT activity class (TDR criteria) [11]: moderately active (IC50 between 0.5 and 6.0 μM); fold more potent against T. b. rhodesiense than the corresponding acetamide [11]: 5.6 fold
